Assay [1] has as its system HUVEC. Briefly: Antiangiogenic activity against human HUVEC cells assessed as inhibition of [3H]thymidine incorporation incubated for 24 hrs prior to [3H]thymidine addition measured after 6 hrs by microbeta counting analysis. Format: functional, cell-based. For orientation: Incorporation of labelled thymidine or its analogues reports DNA synthesis.
Assay [2] has as its system HUVEC. Briefly: Selectivity ratio of IC50 for human BT474 cells to IC50 for human HUVEC cells. Format: functional.
The test system of assay [3] is HUVEC. The assay is described as follows: Selectivity ratio of IC50 for human Jurkat T cells to IC50 for human HUVEC cells. In kind it is functional.
For assay [4], the system named is HeLa. The assay is described as follows: Antiproliferative activity against human HeLa cells assessed as inhibition of [3H]thymidine incorporation incubated for 24 hrs prior to [3H]thymidine addition measured after 6 hrs by microbeta counting analysis. In kind it is functional, cell-based.
For the next assay, the system named is BT-474. Briefly: Antiproliferative activity against human BT474 cells assessed as inhibition of [3H]thymidine incorporation incubated for 24 hrs prior to [3H]thymidine addition measured after 6 hrs by microbeta counting analysis. In kind it is functional, cell-based.
Assay [5] relates to HeLa. The assay is described as follows: Selectivity ratio of IC50 for human HeLa cells to IC50 for human HUVEC cells. Format: functional.
Assay [6] is described as follows: Antiproliferative activity against human Jurkat T cells assessed as inhibition of [3H]thymidine incorporation incubated for 24 hrs prior to [3H]thymidine addition measured after 6 hrs by microbeta counting analysis. In kind it is functional, cell-based.
In assay [7] the test system is HUVEC. The assay is described as follows: Antiangiogenic activity against human HUVEC cells assessed as inhibition of tube formation after 16 to 18 hrs by Calcein-AM staining-based fluorescence microscopic analysis. In kind it is functional, cell-based.
The subject of assay [8] is HUVEC. Briefly: Antiangiogenic activity against human HUVEC cells assessed as inhibition of tube formation at 5 uM after 16 to 18 hrs by Calcein-AM staining-based fluorescence microscopic analysis. In kind it is functional.

A value given as a limit tells only on which side of the number the result lay.

Take `COc1ccc2c(c1)Cc1sc(NC(C)=O)nc1-2`: the IC50 – broadly, the point on the concentration scale where inhibition reaches its midpoint – in the assay with HUVEC [1] was 4.4 µM.
Same read-out and setting: next, `CCC(=O)Nc1nc2c(s1)COc1ccc(F)cc1-2`: over 10 µM; `Nc1nc2c(s1)CCCC2`: over 10 µM; `CCC(=O)Nc1nc2c(s1)CCc1cc(OC)c(OC)cc1-2`: over 10 µM.
As to `CCOC(=O)Nc1nc2c(s1)CSc1ccc(Cl)cc1-2`, the “Ratio IC50” value with HUVEC [2] is 2.2; in the assay on HUVEC [3], 2.3; with HeLa [5], 2.3. Also, the IC50 in the assay on HeLa [4] came out at 6.5 µM; in the assay with HUVEC [1] it was 2.8 µM; in the assay on BT-474 it was 6.2 µM; in assay [6], 6.3 µM.
In the case of `CCC(=O)Nc1nc2c(s1)Cc1cc(F)ccc1-2`, the IC50 in the assay with HUVEC [1] is over 10 µM.
The same measure, in the same setting: to `COc1ccc2c(c1)CCc1sc(N)nc1-2` belongs over 10 µM.
Turning to `Nc1nc2c(s1)CCCc1ccc(F)cc1-2`, the half-maximal inhibitory concentration (IC50) is 16.2 µM in the assay with HeLa [4], 14.8 µM in the assay on HUVEC [1], over 20 µM with BT-474 and over 20 µM in [6].
As for `COc1ccc2c(c1)CCc1sc(NC(C)=O)nc1-2`, the IC50 in the assay on HUVEC [1] was over 10 µM.
On the same count and under the same terms, next, `Nc1nc2c(s1)-c1ccccc1CC2`: over 10 µM; `[N-]=[N+]=NCCCCCCNc1nc2c(s1)CSc1ccccc1-2`: 5.9 µM; `Nc1nc2c(s1)CCOc1cc3c(cc1-2)OCO3`: 5.1 µM.
Still for that read-out and setting: to `COc1ccc(-c2csc(NC(C)=O)n2)cc1OC` belongs over 10 µM.
As to `O=C(Nc1nc2c(s1)CCCc1ccc(F)cc1-2)c1c(F)cccc1F`, the half-maximal inhibitory concentration (IC50) with HeLa [4] is over 20 µM; in the assay on HUVEC [1], 13.5 µM; with BT-474, over 20 µM; in [6], over 20 µM.
Turning to `Nc1nc2c(s1)Cc1cc(F)ccc1-2`, in the assay with HUVEC [1], the concentration for half-maximal inhibition (IC50) is over 10 µM.
Same read-out and setting: to `CCC(=O)Nc1nc2c(s1)CCCC2` belongs over 10 µM; to `COc1ccc2c(c1)Cc1sc(N)nc1-2`, over 10 µM.
On to `C#CCOc1ccc(C(=O)Nc2nc3c(s2)CSc2ccccc2-3)cc1`, for which the “Ratio IC50” value with HUVEC [2] was determined as 0.1; in the assay with HUVEC [3] it was 1.6; in the assay with HeLa [5], 1.7. The 50% inhibitory concentration (IC50) turned out to be 5 µM with HeLa [4], 2.9 µM with HUVEC [1], 0.3 µM in the assay on BT-474 and 4.6 µM in assay [6].
As for `Nc1nc2c(s1)CSc1ccccc1-2`, the results for the “Ratio IC50” value in the assay on HUVEC [2], with HUVEC [3] and in the assay on HeLa [5] were 4.3, 0.5 and 3.6, respectively. Further, the IC50 in the assay on HeLa [4] came out at 6.8 µM; in the assay on HUVEC [1] it was 1.9 µM; in the assay on BT-474 it was 8.2 µM; in assay [6], 0.9 µM.
With `CCC(=O)Nc1nc2c(s1)CSc1ccccc1-2`, the “Ratio IC50” value in the assay on HUVEC [2] is 3; in the assay on HUVEC [3] it was 2.5; with HeLa [5], 4. Further, the half-maximal inhibitory concentration (IC50) in the assay with HeLa [4] is 8 µM; in the assay with HUVEC [1], 2 µM; in the assay with BT-474, 5.9 µM; in [6], 4.9 µM.
For the compound `Nc1nc2c(s1)CCc1ccccc1-2`, in the assay on HUVEC [1], the IC50 is over 10 µM.
Still for that read-out and setting: to `COc1cccc2c1CCc1sc(N)nc1-2` belongs over 10 µM; to `COc1cc2c(cc1OC)-c1nc(N)sc1CC2`, over 10 µM.
Same read-out and setting: to `CCC(=O)Nc1nc2c(s1)COc1ccccc1-2` belongs over 10 µM; to `CC(=O)Nc1nc(-c2ccc(Cl)cc2)cs1`, over 10 µM.
On the same count and under the same terms, to `Nc1nc2c(s1)COc1ccc(F)cc1-2` belongs over 10 µM.
For the compound `COc1ccc2c(c1)CCc1sc(NCc3ccco3)nc1-2`, in the assay on HUVEC [1], the concentration for half-maximal inhibition (IC50) is 4.5 µM.
On the same count and under the same terms, next, `C#CCOc1ccc(C(=O)Nc2nc3c(s2)CCCc2ccccc2-3)cc1`: 7.3 µM.
As for `O=C(Nc1nc2c(s1)CSc1ccccc1-2)c1c(F)cccc1F`, the half-inhibitory concentration (IC50) turned out to be 13.1 µM in the assay with HeLa [4], 12 µM with HUVEC [1], 7.2 µM in the assay with BT-474 and 11.8 µM in assay [6].
On to `Nc1nc2c(s1)CCCc1ccccc1-2`, for which the IC50 was over 20 µM in the assay on HeLa [4], 19.1 µM with HUVEC [1], over 20 µM in the assay with BT-474 and over 20 µM in assay [6].
For `CCC(=O)N(C(=O)CC)c1nc2c(s1)CCCc1ccccc1-2`, the “Ratio IC50” value with HUVEC [2] was over 13; in the assay with HUVEC [3], 1.9; with HeLa [5], 4. Also, the half-inhibitory concentration (IC50) with HeLa [4] was 5.9 µM; in the assay on HUVEC [1] it was 1.5 µM; in the assay on BT-474, over 20 µM; in [6], 2.8 µM.
In the case of `Nc1nc2c(s1)CSc1ccc(Cl)cc1-2`, the figures for the “Ratio IC50” value in the assay on HUVEC [2], in the assay with HUVEC [3] and in the assay on HeLa [5] were 2, 0.8 and 6.3, respectively. In addition, the 50% inhibitory concentration (IC50) in the assay on HeLa [4] stood at 11.9 µM; in the assay on HUVEC [1] it was 1.9 µM; in the assay on BT-474 it was 3.8 µM; in assay [6], 1.6 µM.
For `CCOC(=O)Nc1nc2c(s1)CCCc1ccccc1-2`, the IC50 in the assay on HeLa [4] was over 20 µM; in the assay on HUVEC [1], 9.2 µM; with BT-474, over 20 µM; in assay [6], over 20 µM.
As for `O=C(Nc1nc2c(s1)CSc1ccc(Cl)cc1-2)c1c(F)cccc1F`, the “Ratio IC50” value was 0.7 in the assay with HUVEC [2], 3.3 with HUVEC [3] and over 4 in the assay on HeLa [5]. Also, the IC50 with HeLa [4] is over 20 µM; in the assay with HUVEC [1] it was 5.2 µM; in the assay with BT-474, 3.6 µM; in [6], 17.3 µM.
For the compound `Nc1nc2c(s1)COc1ccccc1-2`, in the assay with HUVEC [1], the IC50 is over 10 µM.
On to `Nc1nc(-c2ccc(Cl)cc2)cs1`, for which, in the assay on HUVEC [1], the IC50 is over 10 µM.
Regarding `Clc1ccc2c(c1)-c1nc(NCc3ccco3)sc1CS2`, the inhibition (as a rule, how much of the control response was suppressed) with HUVEC [7] is “Dose-dependent effect”. Also, the “Ratio IC50” value worked out at 2.1 with HUVEC [2], 2.3 in the assay with HUVEC [3] and 9.4 in the assay with HeLa [5]. Further, the IC50 with HeLa [4] was 10.3 µM; in the assay with HUVEC [1] it was 1.1 µM; with BT-474, 2.3 µM; in assay [6], 2.5 µM.
`CCCCCC(=O)Nc1nc2c(s1)CCc1ccccc1-2`: the IC50 in the assay on HUVEC [1] came to 3 µM.
On the same count and under the same terms, next, `CC(=O)Nc1nc2c(s1)CCc1ccccc1-2`: over 10 µM; `CCCCCC(=O)Nc1nc2c(s1)CCc1cc(OC)ccc1-2`: 3.7 µM.
As for `O=C(Nc1nc2c(s1)CCCc1ccccc1-2)c1c(F)cccc1F`, in the assay on HUVEC [7], the inhibition entry is “Dose-dependent effect”. The inhibition at 5 µM in the assay with HUVEC [8] was 75%. Moreover, the “Ratio IC50” value is over 13 with HUVEC [2], over 13 in the assay with HUVEC [3] and 10 with HeLa [5]. Further, the half-maximal inhibitory concentration (IC50) in the assay on HeLa [4] was 15.2 µM; in the assay on HUVEC [1] it was 1.5 µM; in the assay with BT-474, over 20 µM; in assay [6] it was over 20 µM.
Regarding `CCC(=O)Nc1nc2c(s1)CCCc1ccccc1-2`, the “Ratio IC50” value with HUVEC [2], in the assay with HUVEC [3] and with HeLa [5] was over 5 each time. Moreover, the IC50 with HeLa [4] is over 20 µM; with HUVEC [1], 3.7 µM; in the assay on BT-474, over 20 µM; in [6], over 20 µM.
On to `CC(=O)Nc1nc2c(s1)-c1ccccc1CC2`, for which the IC50 with HUVEC [1] is over 10 µM.
The same measure, in the same setting: next, `COc1cccc2c1CCc1sc(NC(C)=O)nc1-2`: over 10 µM; `COc1ccc2c(c1)-c1nc(N)sc1CC2`: over 10 µM; `COc1ccc2c(c1)-c1nc(NC(C)=O)sc1CC2`: 4.2 µM.
As to `COc1ccc(-c2csc(N)n2)cc1OC`, the IC50 in the assay on HUVEC [1] is over 10 µM.

The values above are taken from ChEMBL document CHEMBL2375231, “Tricyclic thiazoles are a new class of angiogenesis inhibitors” (Bioorg Med Chem Lett, 2013).
